Reference: EP0259183A2, “Process for controlling the accuracy and precision of sensitivity assays” (LIFETRAC, priority 1986, dated 1988)

Tested on: primary human tumor cells
Test: Drug sensitivity assay of primary tumor cell cultures on cell-adhesive matrix, growth quantitated by optical density of crystal violet stained wells, IC90 from survival curves
Assay type: cell-based
Settings: median of IC90 values over a large group of individuals' tumor cells (Figure 5); 5 days drug exposure, then 7 days further culture; 2,000 cells per well
Method: Biopsies of tumors were obtained from cancer patients during routine diagnostic or therapeutic procedures. The biopsies were transported to the laboratory.
The solid tumor biopsies were minced with scapels to 1 mm pieces. Fluid specimens were anticoagulated with 10 Units/ml of Heparin and the cells recovered by contrifugation. The tissue from either the solid or fluid specimens were disaggregated by overnight incubation with constant stirring with the enzyme cocktail consisting of collagenase (0.075%) and DNase (0.005%) in culture medium supplemented with 10% fetal bovine serum. […]
The tumor cell count is performed using a hemocytometer and a microscope fitted with a phase gradient inaging system so that living cells can be visualized. The number of viable tumor cells are counted at 400X magnification according to the following criteria: 1. unstained by the trypan blue dye; 2. large size (>15 microns); 3. large nucleous to cytoplasmic ratio; 4. prominant nucleoli; and 5. nil to moderate granularity. The number of cells in 1/9th the marked area of the hemocytometer meeting the above criteria are counted.
The cell concentration is calculated and an aliquot containing the number of cells required for the assay (200,000 cells for a 9 drug assay using alphaMEM culture medium) is withdrawn. […]

Compound: N.N.[Cl][Pt][Cl] [cisplatin]
- IC90 (concentration of drug that killed or inhibited 90% of the growing population of cells), median of the distribution of responses: 0.3 µg/mL
